Each structure is given as a SMILES string. pIC50: −log10 of the molar value.

The subject of the assay is IL-1b. The experiment in a line: Mouse BMDM IL-1b Assay. The settings on record: Macrophage; mouse bone marrow derived macrophages (C57BL6); 200 ng/mL LPS 3 h, compound 30 min, 5 mM ATP 45 min; IL-1b ELISA of supernatant. In kind it is cell-based. Here is the method: Example 20: Mouse BMDM IL-1b Assay
Mouse bone marrow cells from C57BL6 tibia and femur were culture in complete Isocov's Media supplemented with 20 ng/mL MCSF (BMDM media) at a density of 50 million cells/15 cm Petri dish. Fresh media was changed every 3 days, and bone marrow derived macrophages were collected, washed, and counted on day 7. Cells were seeded into 96 well plates at a density of 5×10^4 cells per well in 100 uL of BMDM media and cultured overnight. The cells were stimulated at 37° C. with 200 ng/mL Ultrapure LPS-B5 for 3 hours before pre-diluted compounds were added. 30 minutes after compound addition, 5 mM ATP was added for the secondary stimulation for 45 minutes. After stimulation, the plates were briefly spun down, and 50 uL of supernatant was harvested from each well. ELISA for mouse IL-1b was performed with 1:10 and 1:100 diluted supernatant using pre-coated kits. IL-1b concentrations were calculated based on pre-titrated standards, and compound inhibition IC50 is generated using the Levenberg Marquardt damped lease-square method.
For orientation: An ELISA detects its analyte on a solid surface through an enzyme-linked reagent.
Take `CC1(O)CCCc2oc(S(=O)(=O)NC(=O)Nc3c4c(cc5c3CCC5)CCC4)cc21` (centres unmarked) [Compound 5, N-((1,2,3,5,6,7-hexahydro-s-indacen-4-yl)carbamoyl)-4-hydroxy-4-methyl-4,5,6,7-tetrahydrobenzofuran-2-sulfonamide]: the pIC50 (commonly the negative decadic logarithm of the IC50, by convention in mol/L) is over 7.00.
`O=C(Nc1c2c(cc3c1CCC3)CCC2)NS(=O)(=O)c1cc2c(o1)CCCC2=O` [Compound 6] gave a pIC50 of 6.00 to 7.00.
Consider `O=C(Nc1c2c(cc3c1CCC3)CCC2)NS(=O)(=O)c1cc2c(o1)CCCC2O` (centres unmarked) [Compound 8, N-((1,2,3,5,6,7-hexahydro-s-indacen-4-yl)carbamoyl)-4-hydroxy-4,5,6,7-tetrahydrobenzofuran-2-sulfonamide], for which the pIC50 was over 7.00.
As to `CC1(C)CCc2oc(S(=O)(=O)NC(=O)Nc3c4c(cc5c3CCC5)CCC4)cc2C1(C)O` (centres unmarked) [Compound 11, N-((1,2,3,5,6,7-hexahydro-s-indacen-4-yl)carbamoyl)-4-hydroxy-4,5,5-trimethyl-4,5,6,7-tetrahydrobenzofuran-2-sulfonamide], the pIC50 was over 7.00.
The result for `CC1(C)CCC(C)(O)c2cc(S(=O)(=O)NC(=O)Nc3c4c(cc5c3CCC5)CCC4)oc21` (centres unmarked) [Compound 12, N-((1,2,3,5,6,7-hexahydro-s-indacen-4-yl)carbamoyl)-4-hydroxy-4,7,7-trimethyl-4,5,6,7-tetrahydrobenzofuran-2-sulfonamide] reads over 7.00; that for `CC1(C)CCc2oc(S(=O)(=O)NC(=O)Nc3c4c(cc5c3CCC5)CCC4)cc2C1=O` [Compound 13, N-((1,2,3,5,6,7-hexahydro-s-indacen-4-yl)carbamoyl)-5,5-dimethyl-4-oxo-4,5,6,7-tetrahydrobenzofuran-2-sulfonamide], 6.00 to 7.00.
The result for `CC1(C)CCc2oc(S(=O)(=O)NC(=O)Nc3c4c(cc5c3CCC5)CCC4)cc2C1O` (centres unmarked) [Compound 14, N-((1,2,3,5,6,7-hexahydro-s-indacen-4-yl)carbamoyl)-4-hydroxy-5,5-dimethyl-4,5,6,7-tetrahydrobenzofuran-2-sulfonamide] reads over 7.00; that for `CC1Cc2oc(S(=O)(=O)NC(=O)Nc3c4c(cc5c3CCC5)CCC4)cc2C(C)(O)C1` (centres unmarked) [Compound 16, N-((1,2,3,5,6,7-hexahydro-s-indacen-4-yl)carbamoyl)-4-hydroxy-4,6-dimethyl-4,5,6,7-tetrahydrobenzofuran-2-sulfonamide], over 7.00; that for `CC1CC(=O)c2cc(S(=O)(=O)NC(=O)Nc3c4c(cc5c3CCC5)CCC4)oc2C1` (centres unmarked) [Compound 17, N-((1,2,3,5,6,7-hexahydro-s-indacen-4-yl)carbamoyl)-6-methyl-4-oxo-4,5,6,7-tetrahydrobenzofuran-2-sulfonamide], 6.00 to 7.00.
The result for `CC1Cc2oc(S(=O)(=O)NC(=O)Nc3c4c(cc5c3CCC5)CCC4)cc2C(O)C1` (centres unmarked) [Compound 18, N-((1,2,3,5,6,7-hexahydro-s-indacen-4-yl)carbamoyl)-4-hydroxy-6-methyl-4,5,6,7-tetrahydrobenzofuran-2-sulfonamide] reads 6.00 to 7.00; that for `CC1(C)Cc2oc(S(=O)(=O)NC(=O)Nc3c4c(cc5c3CCC5)CCC4)cc2C(C)(O)C1` (centres unmarked) [Compound 20, N-((1,2,3,5,6,7-hexahydro-s-indacen-4-yl)carbamoyl)-4-hydroxy-4,6,6-trimethyl-4,5,6,7-tetrahydrobenzofuran-2-sulfonamide], over 7.00; that for `CC1(C)CC(=O)c2cc(S(=O)(=O)NC(=O)Nc3c4c(cc5c3CCC5)CCC4)oc2C1` [Compound 21, N-((1,2,3,5,6,7-hexahydro-s-indacen-4-yl)carbamoyl)-6,6-dimethyl-4-oxo-4,5,6,7-tetrahydrobenzofuran-2-sulfonamide], 6.00 to 7.00.
With `CC1(C)Cc2oc(S(=O)(=O)NC(=O)Nc3c4c(cc5c3CCC5)CCC4)cc2C(O)C1` (centres unmarked) [Compound 22, N-((1,2,3,5,6,7-hexahydro-s-indacen-4-yl)carbamoyl)-4-hydroxy-6,6-dimethyl-4,5,6,7-tetrahydrobenzofuran-2-sulfonamide], the pIC50 was over 7.00.
The figure for `CC1(O)CCCCc2oc(S(=O)(=O)NC(=O)Nc3c4c(cc5c3CCC5)CCC4)cc21` (centres unmarked) [Compound 24, N-((1,2,3,5,6,7-hexahydro-s-indacen-4-yl)carbamoyl)-4-hydroxy-4-methyl-5,6,7,8-tetrahydro-4H-cyclohepta[b]furan-2-sulfonamide] is over 7.00; for `O=C(Nc1c2c(cc3c1CCC3)CCC2)NS(=O)(=O)c1cc2c(o1)CCCCC2O` (centres unmarked) [Compound 25, N-((1,2,3,5,6,7-hexahydro-s-indacen-4-yl)carbamoyl)-4-hydroxy-5,6,7,8-tetrahydro-4H-cyclohepta[b]furan-2-sulfonamide] it is over 7.00; for `CC(C)C1Cc2oc(S(=O)(=O)NC(=O)Nc3c4c(cc5c3CCC5)CCC4)cc2C(C)(O)C1` (centres unmarked) [Compound 27, N-((1,2,3,5,6,7-hexahydro-s-indacen-4-yl)carbamoyl)-4-hydroxy-6-isopropyl-4-methyl-4,5,6,7-tetrahydrobenzofuran-2-sulfonamide] it is over 7.00.
On to `CC(C)C1Cc2oc(S(=O)(=O)NC(=O)Nc3c4c(cc5c3CCC5)CCC4)cc2C(O)C1` (centres unmarked) [Compound 28, N-((1,2,3,5,6,7-hexahydro-s-indacen-4-yl)carbamoyl)-4-hydroxy-6-isopropyl-4,5,6,7-tetrahydrobenzofuran-2-sulfonamide], for which the negative logarithm of the IC50 (pIC50) was 6.00 to 7.00.
The figure for `O=C(Nc1c2c(cc3c1CCC3)CCC2)NS(=O)(=O)c1cc2c(o1)CCCc1c[nH]nc1-2` [Compound 33, N-((1,2,3,5,6,7-hexahydro-s-indacen-4-yl)carbamoyl)-2,4,5,6-tetrahydrofuro[2′,3′:6,7]cyclohepta[1,2-c]pyrazole-8-sulfonamide] is 6.00 to 7.00; for `O=C(Nc1c2c(cc3c1CCC3)CCC2)NS(=O)(=O)c1cc2c(o1)CCC/C2=N\O` [Compound 35, (E)-N-((1,2,3,5,6,7-hexahydro-s-indacen-4-yl)carbamoyl)-4-(hydroxyimino)-4,5,6,7-tetrahydrobenzofuran-2-sulfonamide] it is over 7.00; for `O=C(Nc1c2c(cc3c1CCC3)CCC2)NS(=O)(=O)c1cc2c(o1)CCC/C2=N/O` [Compound 36, (Z)—N-((1,2,3,5,6,7-hexahydro-s-indacen-4-yl)carbamoyl)-4-(hydroxyimino)-4,5,6,7-tetrahydrobenzofuran-2-sulfonamide] it is over 7.00.
In the case of `O=C(Nc1c2c(cc3c1CCC3)CCC2)NS(=O)(=O)c1cc2c(o1)CCCNC2=O` [Compound 38, N-((1,2,3,5,6,7-hexahydro-s-indacen-4-yl)carbamoyl)-4-oxo-5,6,7,8-tetrahydro-4H-furo[3,2-c]azepine-2-sulfonamide], the negative logarithm of the IC50 (pIC50) is 6.00 to 7.00.
As to `O=C(Nc1c2c(c(Br)c3c1CCC3)CCC2)NS(=O)(=O)c1cc2c(o1)CCCC2O` (centres unmarked) [Compound 39, N-((8-bromo-1,2,3,5,6,7-hexahydro-s-indacen-4-yl)carbamoyl)-4-hydroxy-4,5,6,7-tetrahydrobenzofuran-2-sulfonamide], the negative-log IC50 (pIC50) was over 7.00.
The result for `CC1(O)CCCc2oc(S(=O)(=O)NC(=O)Nc3c4c(c(Br)c5c3CCC5)CCC4)cc21` (centres unmarked) [Compound 40, N-((8-bromo-1,2,3,5,6,7-hexahydro-s-indacen-4-yl)carbamoyl)-4-hydroxy-4-methyl-4,5,6,7-tetrahydrobenzofuran-2-sulfonamide] reads over 7.00.

Values taken from US12466800B2, “N-((1,2,3,5,6,7-hexahydro-S-indacen-4-yl)carbamoyl)-4, 5, 6, 7-tetrahydrobenzofuran-2-sulfonamide derivatives and related compounds as NLPR3 modulators for the treatment of multiple sclerosis (MS)” (Zomagen Biosciences Ltd, priority 2019, dated 2025).
